Experimental data as given in US20100234238A1, “METHOD FOR PROFILING KINASE INHIBITORS” (Janssen Pharmaceutica N V, priority 2006, published 2010).

Tested on: tyrosine kinase activity in xenograft tumor lysates
Assay: PAMCHIP96 (140-peptide array) profiling of xenograft tumor lysates in absence or presence of MTKI
Format: biochemical
Settings: 5 μM
Experimental: 100 mg of frozen tumor or tissue blocks, or sections, are lysed in 1 ml of M-PER buffer (PIERCE) containing phosphatase and protease inhibitors (HALT, PIERCE). The suspension is mixed using a ULTRA-TURRAX blender (IKA werke), and centrifuged twice for 10 minutes at 12 000×g. Supernatant lysates are filtered through a 0.2 micrometer filter (Anotop 0.2 μm anopore filter; Whatmann). Lysates are flash frozen in liquid nitrogen and stored at −80C.
Just prior to the PAMCHIP experiment, total protein content is quantitated in the lysates and lysates are diluted to 1 mg/ml in a total volume of 200 μl, with M-PER phosphatase and protease inhibitors (HALT, PIERCE). 10 μg of total lysate (corresponding to 10 μl) will be used per well on the PAMCHIP96.
To all 200 μl lysates 10 units of benzonase (Novagen) is added and lysates are further incubated for 30 min on ice and next centrifuged for 10 minutes at 12 000×g. The supernatant is then 1:1 diluted with compound or DMSO diluted to the appropriate concentration in water, and lysates are further incubated exactly 60 min on ice. Meanwhile, a PAMCHIP96 tyrosine peptide chip (PAMGENE) is blocked with 2% BSA (filtered through a 0.2 μm anopore filter; Whatmann) using the standard setting of a PAMSTATION96 (PAMGENE).
The composition of the kinase buffer is as follows: 1×ABL buffer (NEB), 0.5 mg/ml BSA (from 10 mg/ml NEB stock), 100 μM ATP (dissolved and diluted in 1×ABL buffer), 5 μg/ml PY20-FITC (ExAlpha Biologicals, azide-free preparation). A twofold concentrated kinase buffer is prepared chilled on ice, DMSO or compound is added as appropriate, and the solution is added 1:1 to the (compound treated) ice cold lysates, and immediately applied to a tyrosine peptide PAMCHIP96. The assay is run on a PAMSTATION96 according to standard procedures: after loading of the plate, solution is pumped once onto the wells, a first exposure is read (150 mSec) and then a kinetic reading program (reading every 5 min for 150 mSec) is run for 60 min. Lysates are run in 6 technical replicates for each condition; replicates are always applied horizontally next to each other to avoid vertical strip effects of the chip.
The data (spot images) are further quantified and linked to the peptide identities using EVOLVE PAMGRID software (PAMGENE). The quantified data are then fit to a curve using CurveFitHT software (PAMGENE) using the Vinip2 curve fitting algorithm, applied on the first 30 min of the assay; the initial velocity is derived at the first kinetic time point read. All subsequent data analyses were done on initial velocities (Vini) using the software packages Omniviz and R (Ihaka, R. and Gentlemen, R. (1996) R: a language for data analysis and graphics. J. Comput. Graph. Stat., 5, 299-314).
After replacing the Vini's lower than 0.1 by 0.1, all Vini's were log 2-transformed to approach normality. […] This test was done for each peptide separately using a mixed model (Littell, R. C., Milliken, G. A., Stroup, W. W., Wolfinger, R. D. 1996. SAS system for mixed models. Cary, N. C.: SAS Institute Inc.) allowing the incorporation of both technical variation (i.e., the variation across replicates) and biological variation (i.e., the variation among the various responding and non-responding cell lines or tumors). Variation between cell lines or tumors in Vini and in treatment effect on Vini was modeled respectively by random intercepts and random compound effects per cell line or tumor, nested in response status. The difference in compound-induced reduction in Vini between responding and non-responding cell lines or tumors was tested through the interaction between compound treatment and response status, both modeled as fixed effects.

For COc1cc2ncnc3c2cc1OCCCCCN(C)Cc1ccc(Br)cc1N3 [MTKI, 4,6-ethanediylidenepyrimido[4,5-b][6,1,12]benzoxadiazacyclopentadecine, 17-bromo-8,9,10,11,12,13,14,19-octahydro-20-methoxy-13-methyl-], the “ratio of initial velocity of peptide phosphorylation” value (“ratio” below) (A431 xenograft tumor lysate, CDK7_157_169_S164) was 0.60, the “ratio” value (A431 xenograft tumor lysate, EPHB1_921_933_Y928) was 0.39 and the “ratio” value (A431 xenograft tumor lysate, FAK1_569_581_Y576/Y577) was 0.58. The “ratio” value (A431 xenograft tumor lysate, GSK3B_209_221_Y216) was 0.67, the “ratio” value (A431 xenograft tumor lysate, K2C6E_53_65_S59) was 0.54 and the “ratio” value (A431 xenograft tumor lysate, MBP_259_271_Y261/Y268/S266) was 0.60. The “ratio” value (A431 xenograft tumor lysate, MK10_216_228_T221/Y223) was 0.60, the “ratio” value (A431 xenograft tumor lysate, NCF1_313_325_S315/S320) was 0.66 and the “ratio” value (A431 xenograft tumor lysate, NTRK2_699_711_Y702/Y706/Y707) was 0.46. For the same compound, the “ratio” value (A431 xenograft tumor lysate, P2AB_297_309_T304/Y307) was 0.65, the “ratio” value (A431 xenograft tumor lysate, PGFRB_572_584_Y579/Y581) was 0.64 and the “ratio” value (A431 xenograft tumor lysate, RAF1_331_343_S337/S338/Y339/Y340) was 0.58. The “ratio” value (A431 xenograft tumor lysate, RB_804_816_S807/S811) was 0.53, the “ratio” value (A431 xenograft tumor lysate, SYN1_2_14_S9) was 0.76 and the “ratio” value (A431 xenograft tumor lysate, TYRO3_679_691_Y686) was 0.55. For the same compound, the “ratio” value (A431 xenograft tumor lysate, VEGFR2_944_956_Y951) was 0.58, the “ratio” value (A431 xenograft tumor lysate, VINC_815_827_Y821) was 0.52 and the “ratio” value (BT474 xenograft tumor lysate, EPHB1_921_933_Y928) was 0.70. The “ratio” value (BT474 xenograft tumor lysate, FAK1_569_581_Y576/Y577) was 0.89, the “ratio” value (BT474 xenograft tumor lysate, GSK3B_209_221_Y216) was 0.89 and the “ratio” value (BT474 xenograft tumor lysate, K2C6E_53_65_S59) was 0.80. The “ratio” value (BT474 xenograft tumor lysate, MBP_259_271_Y261/Y268/S266) was 0.85, the “ratio” value (BT474 xenograft tumor lysate, MK10_216_228_T221/Y223) was 0.83 and the “ratio” value (BT474 xenograft tumor lysate, NCF1_313_325_S315/S320) was 1.02. For the same compound, the “ratio” value (BT474 xenograft tumor lysate, NTRK2_699_711_Y702/Y706/Y707) was 0.77, the “ratio” value (BT474 xenograft tumor lysate, P2AB_297_309_T304/Y307) was 0.62 and the “ratio” value (BT474 xenograft tumor lysate, PGFRB_572_584_Y579/Y581) was 0.75. For the same compound, the “ratio” value (BT474 xenograft tumor lysate, RAF1_331_343_S337/S338/Y339/Y340) was 0.94, the “ratio” value (BT474 xenograft tumor lysate, RB_804_816_S807/S811) was 0.80 and the “ratio” value (BT474 xenograft tumor lysate, SYN1_2_14_S9) was 0.96. For the same compound, the “ratio” value (BT474 xenograft tumor lysate, TYRO3_679_691_Y686) was 0.84, the “ratio” value (BT474 xenograft tumor lysate, VEGFR2_944_956_Y951) was 0.84 and the “ratio” value (BT474 xenograft tumor lysate, VINC_815_827_Y821) was 0.85. For the same compound, the “ratio” value (DU145 xenograft tumor lysate, CDK7_157_169_S164) was 0.96, the “ratio” value (DU145 xenograft tumor lysate, EPHB1_921_933_Y928) was 0.81 and the “ratio” value (DU145 xenograft tumor lysate, FAK1_569_581_Y576/Y577) was 0.72. For the same compound, the “ratio” value (DU145 xenograft tumor lysate, GSK3B_209_221_Y216) was 1.07, the “ratio” value (DU145 xenograft tumor lysate, K2C6E_53_65_S59) was 0.77 and the “ratio” value (DU145 xenograft tumor lysate, MBP_259_271_Y261/Y268/S266) was 0.81. The “ratio” value (DU145 xenograft tumor lysate, MK10_216_228_T221/Y223) was 0.77, the “ratio” value (DU145 xenograft tumor lysate, NCF1_313_325_S315/S320) was 0.97 and the “ratio” value (DU145 xenograft tumor lysate, NTRK2_699_711_Y702/Y706/Y707) was 0.77. For the same compound, the “ratio” value (DU145 xenograft tumor lysate, P2AB_297_309_T304/Y307) was 0.81, the “ratio” value (DU145 xenograft tumor lysate, PGFRB_572_584_Y579/Y581) was 0.72 and the “ratio” value (DU145 xenograft tumor lysate, RAF1_331_343_S337/S338/Y339/Y340) was 0.83. The “ratio” value (DU145 xenograft tumor lysate, RB_804_816_S807/S811) was 0.76, the “ratio” value (DU145 xenograft tumor lysate, SYN1_2_14_S9) was 0.88 and the “ratio” value (DU145 xenograft tumor lysate, TYRO3_679_691_Y686) was 0.83. For the same compound, the “ratio” value (DU145 xenograft tumor lysate, VEGFR2_944_956_Y951) was 0.95 and the “ratio” value (DU145 xenograft tumor lysate, VINC_815_827_Y821) was 0.84.
